Entries after “also recorded” stand apart in the source; their conditions may differ.
Legend:
[1] = test system: BTBR mice; test: Context-dependent fear conditioning test; format: in vivo
Description: The contextual fear-conditioning chamber was a square arena (25×25 cm) with clear PLEXIGLAS™ walls and a metal grid floor connected to a circuit board that delivered shocks to the metal grid (COULBOURN INSTRUMENTS™). An analog camera was attached on top of the chamber. The camera and the circuit board were connected to a personal computer, and its software (FREEZE FRAME™ 2.0, ACTIMETRICS™) controlled the circuit and recorded the data. The chamber was cleaned with 70% ethanol and wiped with paper towels before each session. In the habituation session, a test mouse was placed in the chamber and allowed to explore for 2 min^66-69. Immediately after habituation, the test mouse received a single mild foot shock (2 s, 0.5 mA). After staying in the chamber one more min, the mouse was removed from the chamber. For the 30-min short-term memory test, the mouse was returned to the context 30 min after the end of the training session. For 24-hr long-term memory test, the mouse was returned to the context 24 hr after the training session. The movement of mice was also recorded by a USB webcam (LIFECAM™ HD-6000, MICROSOFT™) and PC-based video capture software (WINAVI™ Video Capture, ZJ MEDIA DIGITAL TECHNOLOGY™) for 2 min. The recorded video file was further analyzed by off-line video tracking software (ETHOVISION™ XT 7.0, NOLDUS TECHNOLOGY™). The freezing scores were calculated by dividing the test session into 1 min bouts and averaging together all 2 min for each animal. All data shown.
Freezing behavior is defined as the period during which the velocity of the test mouse is less than 1.75 cm/s, and non-freezing behavior is defined as the period during which the velocity of the mouse is greater than 2 cm/s.

[2] = test system: GABA-A α4 or α6 subtypes; settings: cited from earlier work
[3] = cited from earlier work
[4] = test system: BTBR mice; test: Open-field reciprocal social interaction test; format: in vivo; settings: for nose-to-nose interaction with stranger mouse / total (reciprocal) social interaction with stranger mouse: low dose (0.05 mg/kg), Pre/CLZ/Post at one-week intervals, 0.05 mg/kg
Experimental: (§1) A test mouse and an age- and gender-matched stimulus mouse with a mixed C57BL/6J×129 genetic background were introduced in an open field arena (50×50 cm). Mice were socially naïve with each other. The social interactions of mice were recorded by USB webcam (LifeCam HD-6000, Microsoft) and PC-based video capture software (WinAVI Video Capture, ZJ Media Digital Technology) for 10 min.

[5] = test system: C57BL/6J mice; test: Open-field reciprocal social interaction test; format: in vivo; settings: same treatment
Experimental: as §1

[6] = test system: BTBR mice; test: Open field test; format: in vivo
Experimental: (§2) Open field test was performed as previously described (Han et al., 2012). 50×50 cm square open field arena with non-transparent white Plexiglas was used in this study. During the 10 min of trial, total distance moved, circling behavior (a complete 360-degree turn of nose angle with respect to the body center) and time in center (20×20 cm imaginary square) were measured by the video-tracking software (EthoVision XT 8.5, Noldus Technology).

[7] = test system: C57BL/6J mice; test: Open field test; format: in vivo
Experimental: as §2

[8] = test system: wild-type mice; test: Open-field social interaction test; format: in vivo; settings: 0.0625 mg/kg, listed as CLZ
Experimental: (§3) The open-field social interaction test was performed as described previously^64 with minor modifications. The test was performed in the open field arena that was used for the open field test. An age- and gender-matched C57Bl/6J mouse (M) caged in a rectangular wire mesh cage (6×6×10 cm), was used as a social cue. The stranger mouse had never been exposed to the test mouse. The test mouse was placed in the open field arena with an empty wire cage for 10 min for habituation. Following the 10 min session, a stranger mouse was placed in the same cage and the test mouse was allowed to explore the arena for another 10 min. The empty cage or caged stranger mouse was placed in the center of one quadrant of the arena, and immobilized on the floor of the arena with double-sided tape. […] The movement of the mouse was recorded with a USB webcam (LIFECAM™ HD-6000, MICROSOFT™) and PC-based video-capture software (WINAVI™ Video Capture, ZJ MEDIA DIGITAL TECHNOLOGY™). The recorded video file was further analyzed by off-line video tracking software (ETHOVISION™ XT 7.0). Time spent in the cage-containing quadrant, and time spent in the area 5 cm proximal to the cage were measured. Immobilization behavior was also measured by video tracking software. […] All data shown are means±s.e.m. and analyzed using two-way ANOVA with Bonferroni's post hoc analysis. […]

[9] = test system: Scn1a+/− mice; test: Open-field social interaction test; format: in vivo; settings: single i.p. 0.0625 mg/kg 30 min before test, listed as CLZ
Experimental: as §3

SMILES: Cn1ncnc1COc1nn2c(-c3cc(F)ccc3F)nnc2cc1C(C)(C)C [L-838,417]
- long-term (24 h) memory ([1]; 0.05 mg/kg): improved
- short-term (30 min) memory ([1]; 0.05 mg/kg): improved
- memory of the spatial context ([1]; 0.05 mg/kg 30 min before training session and 24-h memory session): substantially improved
- spatial learning behavior (FIG. 13B legend) ([1]; 0.05 mg/kg, legend body prints DS mice, title BTBR mice): substantially rescued
- affinity for the α4 or α6 subtypes [2]: little affinity

SMILES: O=C1CN=C(c2ccccc2Cl)c2cc([N+](=O)[O-])ccc2N1 [Clonazepam]
- short-term and long-term memory ([1]; 0.0125 mg/kg): no significant effects
- long-term (24 h) memory ([1]; 0.05 mg/kg): improved
- short-term (30 min) memory ([1]; 0.05 mg/kg): improved
- short-term and long-term memory ([1]; 0.1 mg/kg): no significant effects
- context-dependent fear memory on Day 1 and Day 14 ([1]; daily 0.05 mg/kg for 14 days): improved
- tolerance to effects on cognitive deficit ([1]; daily 0.05 mg/kg for 14 days): does not cause tolerance
- spatial learning in context-dependent fear conditioning ([1]; low-dose CLZ (FIG. 10)): rescued
- half-life ([3]; in vivo): 30 to 40 h
- half-life in vivo ([3]; mouse washout experiment): 12 h
- nose-to-nose interaction with stranger mouse [4]: significantly enhanced
- total (reciprocal) social interaction with stranger mouse [4]: significantly enhanced
- nose-to-nose interaction with stranger mouse ([4]; listed as CLZ): reversibly increases
- total (reciprocal) social interaction with stranger mouse ([4]; listed as CLZ): reversibly increases
- stereotyped circling behavior in open field with stranger mouse ([4]; low dose (FIG. 8C)): reduces
- social interaction and stereotyped behavior [5]: unaffected
- social interaction and stereotyped behavior ([5]; listed as CLZ): no significant effect
- visits to center of open field (indicator of abnormally low anxiety) ([6]; 0.05 mg/kg): changed toward the values for C57BL/6J mice
- locomotor activity under chronic low dose ([6]; 0.05 mg/kg daily for 14 days): did not cause any increase in locomotor activity; also recorded: did not have any effect
- tolerance to sedative effect (locomotor activity Day 14 vs Day 1) ([6]; 1 mg/kg (high dose) for 14 days): significantly increased locomotor activity; also recorded: caused significant tolerance
- locomotor activity on Day 14 compared to Day 1 ([6]; 1 mg/kg for 14 days): 222±42%
- hyperactivity, total distance moved ([6]; single injection 0.05 mg/kg): significantly reduced
- stereotyped circling behavior, number of 360° rotations ([6]; single injection 0.05 mg/kg): significantly reduced
- anxiety-like behavior: avoidance of the center of an open field ([7]; low doses of clonazepam): little effect
- hyperactivity (total distance moved) and circling behavior ([7]; low-dose clonazepam): unaffected
- social interaction, open field social interaction test [8]: no effect; also recorded: absent; also recorded: not changed
- social interaction, open field social interaction test [9]: completely rescued; also recorded: completely restored; also recorded: completely recovered

Reference: patent US20150313913A1, “POSITIVE ALLOSTERIC MODULATORS OF THE GABA-A RECEPTOR IN THE TREATMENT OF AUTISM” (UNIVERSITY OF WASHINGTON THROUGH ITS CENTER FOR …, priority 2013, published 2015)
